{"source": "patent US6479461B1", "about": "“Use of alkylmonoglucosides as molecular vectors” (Ulice, priority 1997, dated 2002)", "key": {"[1]": {"tested_on": "skin model: epidermis reconstituted from keratinocytes on a matrix of collagen", "assay": "MTT dosage on skin model (cytotoxicity)", "text": "We have quantified and compared in vitro, the cytotoxicity of lactic acid and of lactate of α-butylglucoside on a skin model. This skin model is made up of a matrix of collagen on which rests an epidermis reconstituted from keratinocytes and presenting a similar architecture to that of the human epidermis. The transformation of tetrazolium salt (MTT) in blue crystals of Formozan is proportional to the activity of the dehydrogenase succinate, (a mitochondrial enzyme). As a consequence, the more the epidermis contains living cells, the larger the transformation by the dehydrogenase succinate of the MTT in blue Formozan crystals will be. The quantity of Formozan is measured in the spectrophotometer. The cellular viability, carried out to determine the toxicity of the product, is calculated according to the formula:\n% viability=OD produced/OD cellular control×100\nThe cellular control is carried out without issue. A reference tensioactive SDS (Sodium Dodecyl Sulphate) at 1.5 mg/ml is equally tested as a cytotoxic control.\nIf the cellular viability is between 70 and 50%, the products are considered as slightly cytotoxic.\nIf it is lower than 50%, the products are considered as cytotoxic."}, "[2]": {"tested_on": "corneas from abattoir beef carcasses", "text": "The BCOP test (bovine corneal opacity and permeability) makes it possible to evaluate the ocular irritation indice in vitro on corneas from abattoir beef carcasses. It measures two parameter of ocular irritation: the opacity and cellular permeability.\nThe opacity is defined as the difference of light transmission between a treated cornea and a control cornea. The permeability is equal to the optical density (OD) measured in a spectrophotometer at 490 nm.\nThe irritation score in vitro is established by using the following formula:\nScore in vitro=opacity value+[…] the value of OD.\nThe objective values are combined and the scores of ocular irritation in vitro are compared to an irritation scale previously established. In general, the irritant potential is classed in three categories weak (0 to 25), moderate (25.1 to 55) and severe (55.1 and +)."}, "[3]": {"settings": "SDS at 1-5 mg/ml, MTT, skin model"}}, "note": "Read-outs that look alike come from different tables or passages of the source."}
{"smiles": "CCCCCCCCCCCCOS(=O)(=O)[O-].[Na+]", "note": "[SDS, Sodium Dodecyl Sulphate]", "values": [{"measurement": "% viability in comparison to the control", "setting": "[1]; [3]", "value": 14.8, "unit": "%"}, {"measurement": "Average (optical density at 540 nm)", "setting": "[1]; [3]", "value": 0.051}, {"measurement": "OD trial 1 (optical density at 540 nm)", "setting": "[1]; [3]", "value": 0.046}, {"measurement": "OD trial 2 (optical density at 540 nm)", "setting": "[1]; [3]", "value": 0.056}]}
{"smiles": "CC(O)C(=O)O", "note": "(stereo not shown) [Lactic acid, lactic acid]", "values": [{"measurement": "% viability in comparison to the control", "setting": "[1]; 5 %", "value": 16, "unit": "%"}, {"measurement": "Average (optical density at 540 nm)", "setting": "[1]; 5 %", "value": 0.055}, {"measurement": "OD trial 1 (optical density at 540 nm)", "setting": "[1]; 5 %", "value": 0.044}, {"measurement": "OD trial 2 (optical density at 540 nm)", "setting": "[1]; 5 %", "value": 0.066}, {"measurement": "ocular irritation category", "setting": "[2]", "value": "moderately irritant"}]}
{"smiles": "CCCCO[C@H]1O[C@H](COC(=O)C(C)O)[C@@H](O)[C@H](O)[C@H]1O", "note": "(stereo partly drawn) [Lactate of α-butylglucoside, Lactic Ester of α-Butylglucoside]", "values": [{"measurement": "% viability in comparison to the control", "setting": "[1]", "value": 74.5, "unit": "%"}, {"measurement": "Average (optical density at 540 nm)", "setting": "[1]", "value": 0.255}, {"measurement": "OD trial 1 (optical density at 540 nm)", "setting": "[1]", "value": 0.242}, {"measurement": "OD trial 2 (optical density at 540 nm)", "setting": "[1]", "value": 0.265}, {"measurement": "cytotoxicity class", "setting": "[1]", "value": "not cytotoxic"}, {"measurement": "irritancy compared with lactic acid", "setting": "[1]", "value": "less irritant than lactic acid"}]}
{"smiles": "CCCCO[C@H]1O[C@H](CO)[C@@H](O)[C@H](O)[C@H]1O", "note": "[α-butylglucoside, n-butyl-α-D-monoglucopyranose]", "values": [{"measurement": "ocular irritation category", "setting": "[2]", "value": "non-irritant"}, {"measurement": "miscibility with saturated and unsaturated acids", "setting": "in a melted medium", "value": "miscible in all proportions"}, {"measurement": "Solubility at 20° C.", "setting": "solvent: Acetonitrile", "value": "50 % (p/p)"}, {"measurement": "Solubility at 20° C.", "setting": "solvent: Dichloromethane", "value": "70 % (p/p)"}, {"measurement": "Solubility at 20° C.", "setting": "solvent: Dioxane", "value": "70 % (p/p)"}, {"measurement": "Solubility at 20° C.", "setting": "solvent: Ethanol (95/96%)", "value": "70 % (p/p)"}, {"measurement": "Solubility at 20° C.", "setting": "solvent: Glycerol", "value": "70 % (p/p)"}, {"measurement": "Solubility at 20° C.", "setting": "solvent: Polyethylene glycol 200", "value": "70 % (p/p)"}, {"measurement": "Solubility at 20° C.", "setting": "solvent: Propylene glycol", "value": "70 % (p/p)"}, {"measurement": "Solubility at 20° C.", "setting": "solvent: Water", "value": "60 % (p/p)"}]}
